Laboratory results reported in ChEMBL document CHEMBL5154755, “Discovery of Novel Indazoles as Potent and Selective PI3Kδ Inhibitors with High Efficacy for Treatment of Hepatocellular Carcinoma” (J Med Chem, 2022).

What was measured:
[1] = biological target: T1, Phosphatidylinositol 4,5-bisphosphate 3-kinase catalytic subunit delta isoform (Homo sapiens, UniProt O00329); test: Inhibition of PI3Kdelta (unknown origin) using PIP2 as substrate incubated for 1 hr in presence of ATP by ADP-Glo assay
T1 sequence (O00329 whole entry): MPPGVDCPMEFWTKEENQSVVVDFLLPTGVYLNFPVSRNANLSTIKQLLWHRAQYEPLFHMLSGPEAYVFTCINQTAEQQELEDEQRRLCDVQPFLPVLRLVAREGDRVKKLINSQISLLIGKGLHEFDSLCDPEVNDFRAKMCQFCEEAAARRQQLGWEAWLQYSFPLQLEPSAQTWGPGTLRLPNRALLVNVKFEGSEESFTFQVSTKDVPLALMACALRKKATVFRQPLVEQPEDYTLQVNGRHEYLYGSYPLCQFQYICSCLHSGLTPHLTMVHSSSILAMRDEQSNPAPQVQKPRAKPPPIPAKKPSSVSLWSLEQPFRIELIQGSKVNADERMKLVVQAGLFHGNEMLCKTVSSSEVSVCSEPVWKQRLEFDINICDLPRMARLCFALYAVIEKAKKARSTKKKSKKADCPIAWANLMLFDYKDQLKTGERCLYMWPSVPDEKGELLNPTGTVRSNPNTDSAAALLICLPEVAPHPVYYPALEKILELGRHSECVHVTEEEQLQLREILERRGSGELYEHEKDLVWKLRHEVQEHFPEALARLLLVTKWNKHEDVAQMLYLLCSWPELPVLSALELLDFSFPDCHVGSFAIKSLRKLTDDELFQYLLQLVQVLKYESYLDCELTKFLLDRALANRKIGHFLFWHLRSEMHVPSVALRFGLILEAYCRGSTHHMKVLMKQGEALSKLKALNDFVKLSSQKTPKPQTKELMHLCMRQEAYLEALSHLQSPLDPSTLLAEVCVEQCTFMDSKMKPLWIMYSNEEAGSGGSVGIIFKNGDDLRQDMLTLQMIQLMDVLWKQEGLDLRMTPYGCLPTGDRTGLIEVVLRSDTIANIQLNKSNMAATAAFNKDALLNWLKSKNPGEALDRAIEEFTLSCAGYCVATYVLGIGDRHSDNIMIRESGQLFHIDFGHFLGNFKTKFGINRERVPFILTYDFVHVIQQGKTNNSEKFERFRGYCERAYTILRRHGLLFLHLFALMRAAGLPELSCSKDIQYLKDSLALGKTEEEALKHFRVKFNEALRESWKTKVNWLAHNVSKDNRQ

HepG2 [2] = test: cells; conditions: Homo sapiens, HepG2, 72 h, read-out: INH
Bel-7402 [3] = test: cells; conditions: Homo sapiens, Bel-7402, 72 h, read-out: INH
HepG2 [4] = test: cells; conditions: Homo sapiens, HepG2, 72 h
Description: Antiproliferative activity against human HepG2 cells assessed as inhibition of cell growth incubated for 72 hrs by SRB assay

Hep 3B2 [5] = test: cells; conditions: Homo sapiens, Hep3B, 72 h, read-out: INH
Bel-7402 [6] = test: Antiproliferative activity against human Bel-7402 cells assessed as inhibition of cell growth incubated for 72 hrs by SRB assay; type: functional, cell-based; conditions: Bel-7402, 72 h
Hep 3B2 [7] = test: Antiproliferative activity against human Hep3B cells assessed as inhibition of cell growth incubated for 72 hrs by SRB assay; type: functional, cell-based
[8] = biological target: Phosphatidylinositol 4,5-bisphosphate 3-kinase catalytic subunit beta isoform (Homo sapiens, UniProt P42338); test: Inhibition of PI3Kbeta (unknown origin) using PIP2 as substrate incubated for 1 hr in presence of ATP by ADP-Glo assay
[9] = biological target: Phosphatidylinositol 4,5-bisphosphate 3-kinase catalytic subunit alpha isoform (Homo sapiens, UniProt P42336); test: Inhibition of PI3Kalpha (unknown origin) using PIP2 as substrate incubated for 1 hr in presence of ATP by ADP-Glo assay
[10] = biological target: Phosphatidylinositol 4,5-bisphosphate 3-kinase catalytic subunit gamma isoform (Homo sapiens, UniProt P48736); test: Inhibition of PI3Kgamma (unknown origin) using PIP2 as substrate incubated for 1 hr in presence of ATP by ADP-Glo assay
Phosphatidylinositol 4,5-bisphosphate 3-kinase catalytic subunit gamma isoform, sequence (P48736 whole entry, canonical isoform): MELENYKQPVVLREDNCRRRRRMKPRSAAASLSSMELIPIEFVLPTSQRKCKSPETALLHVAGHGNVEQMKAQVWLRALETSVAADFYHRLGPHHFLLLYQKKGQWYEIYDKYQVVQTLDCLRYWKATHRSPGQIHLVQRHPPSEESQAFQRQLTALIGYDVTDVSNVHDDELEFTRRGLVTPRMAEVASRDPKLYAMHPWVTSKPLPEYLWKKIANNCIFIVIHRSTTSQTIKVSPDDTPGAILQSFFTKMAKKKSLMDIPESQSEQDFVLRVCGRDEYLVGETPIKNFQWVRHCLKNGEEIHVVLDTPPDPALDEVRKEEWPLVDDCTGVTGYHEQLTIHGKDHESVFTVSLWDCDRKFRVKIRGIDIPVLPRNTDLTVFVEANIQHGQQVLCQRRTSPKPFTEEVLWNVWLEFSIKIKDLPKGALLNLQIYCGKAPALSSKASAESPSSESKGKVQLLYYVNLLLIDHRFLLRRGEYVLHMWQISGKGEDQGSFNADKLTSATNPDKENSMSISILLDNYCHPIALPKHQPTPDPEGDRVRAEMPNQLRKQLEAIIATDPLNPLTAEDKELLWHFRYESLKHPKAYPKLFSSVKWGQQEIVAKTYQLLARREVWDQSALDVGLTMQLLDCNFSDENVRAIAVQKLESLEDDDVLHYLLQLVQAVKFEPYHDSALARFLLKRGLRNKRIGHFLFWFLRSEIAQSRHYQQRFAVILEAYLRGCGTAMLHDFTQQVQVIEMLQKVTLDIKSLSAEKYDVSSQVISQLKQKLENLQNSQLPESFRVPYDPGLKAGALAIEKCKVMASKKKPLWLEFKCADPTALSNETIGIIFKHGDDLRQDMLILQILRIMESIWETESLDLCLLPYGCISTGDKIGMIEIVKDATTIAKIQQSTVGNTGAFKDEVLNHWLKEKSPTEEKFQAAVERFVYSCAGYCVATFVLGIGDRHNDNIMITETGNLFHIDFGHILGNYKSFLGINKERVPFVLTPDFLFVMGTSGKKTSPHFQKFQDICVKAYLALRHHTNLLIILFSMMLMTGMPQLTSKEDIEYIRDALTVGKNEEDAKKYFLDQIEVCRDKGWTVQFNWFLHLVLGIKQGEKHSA

Phosphatidylinositol 4,5-bisphosphate 3-kinase catalytic subunit beta isoform, sequence (P42338 whole entry, canonical isoform): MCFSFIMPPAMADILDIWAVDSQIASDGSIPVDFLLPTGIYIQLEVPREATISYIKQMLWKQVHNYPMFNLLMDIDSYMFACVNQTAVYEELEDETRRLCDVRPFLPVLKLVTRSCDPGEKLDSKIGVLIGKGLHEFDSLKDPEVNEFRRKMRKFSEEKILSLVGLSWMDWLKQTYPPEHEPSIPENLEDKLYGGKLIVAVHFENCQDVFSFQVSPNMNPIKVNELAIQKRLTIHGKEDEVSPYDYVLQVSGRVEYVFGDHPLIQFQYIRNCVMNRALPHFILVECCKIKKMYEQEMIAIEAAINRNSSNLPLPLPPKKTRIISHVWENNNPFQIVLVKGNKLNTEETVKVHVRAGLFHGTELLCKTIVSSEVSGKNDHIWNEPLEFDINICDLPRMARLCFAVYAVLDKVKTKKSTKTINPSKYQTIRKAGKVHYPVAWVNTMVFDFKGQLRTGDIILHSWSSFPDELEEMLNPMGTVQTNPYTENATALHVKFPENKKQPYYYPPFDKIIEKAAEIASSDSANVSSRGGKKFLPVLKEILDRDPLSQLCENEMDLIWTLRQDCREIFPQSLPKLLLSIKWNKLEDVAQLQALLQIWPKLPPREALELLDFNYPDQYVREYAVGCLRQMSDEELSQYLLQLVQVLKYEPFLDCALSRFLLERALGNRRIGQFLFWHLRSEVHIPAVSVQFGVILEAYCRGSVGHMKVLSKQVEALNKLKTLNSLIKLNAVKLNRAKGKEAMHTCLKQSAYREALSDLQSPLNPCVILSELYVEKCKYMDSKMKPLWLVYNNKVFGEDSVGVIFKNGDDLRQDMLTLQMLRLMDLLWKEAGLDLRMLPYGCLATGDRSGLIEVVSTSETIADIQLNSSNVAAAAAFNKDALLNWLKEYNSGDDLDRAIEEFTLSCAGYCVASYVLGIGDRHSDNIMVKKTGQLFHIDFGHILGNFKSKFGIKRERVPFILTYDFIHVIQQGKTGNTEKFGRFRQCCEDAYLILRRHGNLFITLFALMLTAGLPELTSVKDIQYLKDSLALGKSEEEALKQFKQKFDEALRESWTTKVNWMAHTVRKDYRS
Phosphatidylinositol 4,5-bisphosphate 3-kinase catalytic subunit alpha isoform, sequence (P42336 whole entry, canonical isoform): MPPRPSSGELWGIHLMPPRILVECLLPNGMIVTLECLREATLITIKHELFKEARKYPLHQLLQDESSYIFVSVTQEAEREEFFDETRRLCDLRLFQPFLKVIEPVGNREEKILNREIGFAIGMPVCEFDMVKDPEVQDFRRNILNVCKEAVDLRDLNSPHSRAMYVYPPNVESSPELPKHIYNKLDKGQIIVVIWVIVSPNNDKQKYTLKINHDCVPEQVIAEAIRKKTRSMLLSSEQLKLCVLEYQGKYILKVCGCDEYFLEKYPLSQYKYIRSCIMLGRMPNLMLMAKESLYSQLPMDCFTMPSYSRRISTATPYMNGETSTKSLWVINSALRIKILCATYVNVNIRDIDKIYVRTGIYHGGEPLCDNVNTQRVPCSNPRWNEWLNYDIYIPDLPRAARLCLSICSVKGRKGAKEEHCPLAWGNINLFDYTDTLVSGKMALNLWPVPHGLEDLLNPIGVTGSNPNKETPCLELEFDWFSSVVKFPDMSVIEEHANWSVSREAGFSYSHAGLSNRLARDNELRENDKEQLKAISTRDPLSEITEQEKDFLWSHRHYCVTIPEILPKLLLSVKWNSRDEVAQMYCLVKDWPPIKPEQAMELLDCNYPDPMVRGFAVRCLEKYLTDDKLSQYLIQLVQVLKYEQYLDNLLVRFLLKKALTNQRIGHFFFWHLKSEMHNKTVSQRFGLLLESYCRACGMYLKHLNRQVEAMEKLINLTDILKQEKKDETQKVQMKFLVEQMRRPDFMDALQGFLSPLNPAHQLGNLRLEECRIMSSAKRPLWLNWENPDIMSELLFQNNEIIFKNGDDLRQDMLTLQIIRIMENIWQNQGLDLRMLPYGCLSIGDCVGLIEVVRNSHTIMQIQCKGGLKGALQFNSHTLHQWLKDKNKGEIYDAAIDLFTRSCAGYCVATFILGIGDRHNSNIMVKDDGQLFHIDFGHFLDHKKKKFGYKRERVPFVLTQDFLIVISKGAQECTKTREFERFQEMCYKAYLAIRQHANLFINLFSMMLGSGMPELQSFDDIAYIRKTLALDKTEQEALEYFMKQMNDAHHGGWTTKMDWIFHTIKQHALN

Row | IC50 [1] | IC50 (HepG2 [4]) | IC50 (Bel-7402 [6]) | IC50 [8] | IC50 [9] | IC50 [10] | SMILES | inhibition at 10 µM (HepG2 [2]) | inhibition at 10 µM (Bel-7402 [3]) | inhibition at 10 µM (Hep 3B2 [5]) | IC50 (Hep 3B2 [7])
1 | 0.039 µM | > 40 µM | > 40 µM |  |  |  | C[C@H](Nc1nc(N)nc2[nH]cnc12)c1nn(-c2cccnc2)c2cc(F)ccc12 | 11% | -5% | 14% | > 40 µM
2 | 0.0021 µM | > 40 µM | > 40 µM |  |  |  | CC[C@H](Nc1nc(N)nc(N)c1C#N)c1nn(-c2cccnc2)c2cc(F)ccc12 | 28% | 29% | 32% | 37.5 µM
3 | 0.274 µM | > 40 µM | > 40 µM |  |  |  | Cc1ccc2c(c1)c([C@H](C)Nc1ncnc3[nH]cnc13)nn2-c1cccnc1 | 18% | -10% | 8% | > 40 µM
4 | 0.0026 µM | 19.1 µM | 22.1 µM |  |  |  | C[C@H](Nc1nc(N)nc(N)c1C#N)c1nn(-c2cccc(S(C)(=O)=O)c2)c2cc(F)ccc12 | 24% | 14% | 36% | 19.7 µM
5 | 0.392 µM | 26.2 µM | 16.1 µM |  |  |  | CC(Nc1ncnc2[nH]cnc12)c1nn(-c2cccnc2)c2ccccc12 (racemic) | 13% | 4% | 9% | 40.3 µM
6 | 0.072 µM | > 40 µM | > 40 µM |  |  |  | CC(C)[C@H](Nc1ncnc2[nH]cnc12)c1nn(-c2cccnc2)c2cc(F)ccc12 | 16% | 5% | 4% | > 40 µM
7 | 0.0077 µM | > 40 µM | > 40 µM |  |  |  | C[C@H](Nc1ncnc2[nH]cnc12)c1nn(-c2cccnc2)c2cc(Cl)ccc12 | 13% | 17% | 13% | > 40 µM
8 | 2.28 µM | 29.9 µM | > 40 µM |  |  |  | C[C@H](Nc1ncnc2[nH]cnc12)c1nn(-c2ccccn2)c2cc(F)ccc12 | 22% | 7% | 12% | > 40 µM
9 | 0.101 µM | 41.9 µM | 31.9 µM |  |  |  | C[C@H](Nc1ncnc2[nH]cnc12)c1nn(-c2cccnc2)c2ccc(F)cc12 | 8% | -22% | 13% | 40.1 µM
10 | 0.0037 µM | 23.2 µM | 29.8 µM |  |  |  | C[C@H](Nc1nc(N)nc(N)c1C#N)c1nn(-c2cccnc2)c2cc(F)ccc12 | 29% | 15% | 30% | 23.8 µM
11 | 0.038 µM | 20.6 µM | 11.2 µM |  |  |  | C[C@H](Nc1ncnc2[nH]cnc12)c1nn(-c2cccnc2)c2ccccc12 | 62% | 40% | 21% | 36.6 µM
12 | 0.0012 µM | 4.77 µM | 5.59 µM | 0.031 µM | 0.576 µM | > 1 µM | CC[C@H](Nc1nc(N)nc(N)c1C#N)c1nn(-c2cccnc2)c2cc(Cl)ccc12 | 59% | 56% | 56% | 12.1 µM
13 | 0.059 µM | 33.9 µM | 29 µM |  |  |  | CC[C@H](Nc1ncnc2[nH]cnc12)c1nn(-c2cccnc2)c2cc(F)ccc12 | 26% | 12% | 4% | > 40 µM

The next lines start with the molecule.

Row | SMILES | IC50 [1] | IC50 (HepG2 [4]) | IC50 (Bel-7402 [6]) | IC50 [8] | IC50 [9] | IC50 [10] | inhibition at 10 µM (HepG2 [2]) | inhibition at 10 µM (Bel-7402 [3]) | inhibition at 10 µM (Hep 3B2 [5]) | IC50 (Hep 3B2 [7])
14 | C[C@H](Nc1nc(N)nc(N)c1C#N)c1nn(-c2cccnc2)c2ccccc12 | 0.004 µM | 32.5 µM | 34.6 µM |  |  |  | 10% | 12% | 20% | 26.5 µM
15 | C[C@H](Nc1ncnc2[nH]cnc12)c1nn(-c2cccnc2)c2cc(F)ccc12 | 0.038 µM | 37.5 µM | > 40 µM |  |  |  | 23% | 8% | 20% | 34.5 µM
16 | C[C@H](Nc1nc(N)nc(N)c1C#N)c1nn(-c2ccncc2)c2cc(F)ccc12 | 0.0057 µM | 7.48 µM | 8.31 µM |  |  |  | 84% | 43% | 50% | 11.6 µM
17 | C[C@H](Nc1ncccc1C#N)c1nn(-c2cccnc2)c2cc(F)ccc12 | > 10 µM | > 40 µM | > 40 µM |  |  |  | 24% | 11% | 10% | > 40 µM
18 | C[C@H](Nc1ncnc2[nH]cnc12)c1nn(-c2ccncc2)c2cc(F)ccc12 | 0.052 µM | 23.1 µM | > 40 µM |  |  |  | 47% | 16% | 5% | 21.4 µM
19 | C[C@H](Nc1nc(N)nc(N)c1C#N)c1nn(-c2cccnc2)c2cc(C(F)(F)F)ccc12 | 0.286 µM | 1.68 µM | 3.19 µM |  |  |  | 36% | 60% | 69% | 9.71 µM
20 | C[C@H](Nc1ncnc2[nH]cnc12)c1nn(-c2cccc(F)c2)c2cc(F)ccc12 | 0.485 µM | 32.3 µM | > 40 µM |  |  |  | 33% | -17% | 28% | > 40 µM
21 | C[C@H](Nc1nc(N)nc(N)c1C#N)c1nn(-c2cccc(S(C)(=O)=O)c2)c2cc(Cl)ccc12 | 0.0021 µM | 1.88 µM | 4.46 µM | 0.047 µM | > 1 µM | > 1 µM | 56% | 47% | 72% | 5.11 µM
22 | C[C@H](Nc1ncnc2[nH]cnc12)c1nn(-c2cc(F)cc(F)c2)c2cc(F)ccc12 | 0.423 µM | 22.1 µM | > 40 µM |  |  |  | 30% | -8% | 14% | > 40 µM
23 | C[C@H](Nc1ncnc2[nH]cnc12)c1nn(-c2ccc(C#N)cc2)c2cc(F)ccc12 | 0.22 µM | 15.1 µM | 31.5 µM |  |  |  | 57% | 0% | 46% | 13.5 µM
24 | C[C@H](Nc1ncnc(N)c1C#N)c1nn(-c2cccnc2)c2cc(F)ccc12 | 0.021 µM | 25.4 µM | 37.4 µM |  |  |  | 56% | -4% | 30% | 19.2 µM
25 | C[C@H](Nc1ncnc2[nH]cnc12)c1nn(-c2cccc(S(C)(=O)=O)c2)c2cc(F)ccc12 | 0.0123 µM | 14.8 µM | 20 µM |  |  |  | 23% | -16% | 11% | 13 µM
